Assay results: EP0314302A2, “Herbicidal o-carbomethoxy-sulfonylureas” (E.I. DU PONT DE NEMOURS AND COMPANY, priority 1987, dated 1989)

System: Sandbur
Assay: Test 9 postemergence
Assay type: in vivo, Cenchrus echinatus
Details: scale 0-100
Description: Plastic windowsill pots containing planting medium were seeded with bahiagrass, bindweed (Convolvulus spp), guinea grass (Panicum maximum), large crabgrass (Digitaria sanguinalis) and pigweed (Amaranthus spp). Individual 15-cm plastic pots contained sandbur (Cenchrus echinatus), Mikania cordata, Boston fern (Nephrolepis exalata), quackgrass (Agropyron repens), elephantgrass (Pennisetum purpureum) and sowthistle (Sonchus spp) plants.
Plants were treated postemergence with Compound I formulated in a non-phytotoxic solvent. Plants were visually rated 22 days after treatment (DAT). Injury and weed control ratings were based on the scale of 0 to 100 where 0 = no effect, 20 = minimal control and 100 = complete control.

Measured: Plant Injury Rating 22 DAT

COC(=O)c1cccnc1S(=O)(=O)NC(=O)Nc1nc(OC)cc(OC)n1 [Compound I, 2-[[(4,6-dimethoxypyrimidin-2-yl)aminocarbonyl]aminosulfonyl]-3-pyridinecarboxylic acid, methyl ester]
100: 8 g/ha | 16 g/ha | 32 g/ha
